From US5726200A, “Pro-drugs for CCK antagonists” (Warner-Lambert Company, priority 1996, dated 1998)

What follows are molecules tested against T1, CCK-B receptor (Mus musculus, UniProt P56481) (assay: Displacement of tritiated-pentagastrin binding to mouse cerebral cortical membranes). Conditions: displacement of 2 nM tritiated-pentagastrin, n = number of assays, read-out: Receptor Affinity CCI-B (Ki).
T1 construct: from tissue; host or cells: cerebral cortex membranes of male CFLP mice
T1 sequence (P56481 1-453): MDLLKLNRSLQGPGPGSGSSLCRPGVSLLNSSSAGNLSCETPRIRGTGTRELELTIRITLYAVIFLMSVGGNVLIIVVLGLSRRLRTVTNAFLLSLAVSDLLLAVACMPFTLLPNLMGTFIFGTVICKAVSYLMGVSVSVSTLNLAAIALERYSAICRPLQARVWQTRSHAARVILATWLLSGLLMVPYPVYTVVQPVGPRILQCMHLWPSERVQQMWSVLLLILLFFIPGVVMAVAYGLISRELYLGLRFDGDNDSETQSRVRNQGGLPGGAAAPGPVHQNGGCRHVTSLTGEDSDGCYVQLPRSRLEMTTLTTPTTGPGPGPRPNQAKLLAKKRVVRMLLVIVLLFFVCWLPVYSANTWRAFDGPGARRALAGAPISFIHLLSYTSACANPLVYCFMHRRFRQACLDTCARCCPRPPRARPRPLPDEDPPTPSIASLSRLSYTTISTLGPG
Parameters: species or system mouse (male CFLP mice)
Method: The biological activity of compounds of the present invention was evaluated employing an initial screening test which rapidly and accurately measured the binding of the tested compound to known CCK receptor sites. […] (See Hays et al, Neuropeptides 1:53-62, 1980; and Satuer et al, Science 208:1155-1156, 1980).
In this screening test, the cerebral cortices taken from male CFLP mice weighing between 30-40 g were dissected on ice, weighed, and homogenized in 10 volumes of 50 mM Tris-HCl buffer (pH 7.4 at 0°-4° C.). The resulting suspension was centrifuged, the supernate was discarded, and the pellet was washed by resuspension in Tris-HCl buffer followed by recentrifugation. The final pellet was resuspended in 20 volumes of […] Hepes buffer (pH 7.2 at 23° C.) containing 130 mM NaCl, […] KCl, […] MgCl2, […] EDTA, 5 mg/mL bovine albumin, and bacitracin (0.25 mg/mL).
In saturation studies, cerebral cortical membranes were incubated at 23° C. for 120 minutes in a final volume of 500 μL of Hepes incubation buffer (pH 7.2) together with 0.2-20 nM tritiated-pentagastrin (Amersham International, England).
In the displacement experiments, membranes were incubated with a single concentration (2 nM) of iigand, together with increasing concentrations (10^-11 to […]) of competitive test compound. In each case, the nonspecific binding was defined as that persisting in the presence of the unlabeled octapeptide CCK26-33 (10^-6 M).
Following incubation, radioactivity bound to membranes was separated from that free in solution by rapid filtration through Whatman GF/B filters and washed three times with 4 mL of ice cold Tris-HCl buffer. Filters from samples incubated with tritiated-pentagastrin were placed in polyethylene vials with 4 mL of scintillation cocktail, and the radioactivity was estimated by liquid scintillation spectrometry (efficiency 47-52%).
The specific binding to CCK receptor sites was defined as the total bound tritiated-pentagastrin minus the amount of tritiated-pentagastrin bound in the presence of 10^-6 octapeptide, CCK26-33.
Saturation curves for specific tritiated-pentagastrin binding to mouse cortical membranes were analyzed by the methods of Scatchard (Ann. New York Acad. Sci. 51:660-672, 1949, and Hill (J. Physiol. 40:IV-VIII, 1910, to provide estimates for the maximum number of binding sites (Bmax) and the equilibrium dissociation constant (Ka).
In displacement experiments, inhibition curves were analyzed by either logit-log plots or the iterative curve fitting computer program ALLFIT (DeLean, Munson and Redbard, 1978) to provide estimates of the IC50 and nH (apparent Hill coefficient) values). (IC50 values were defined as the concentration of test compound required to produce 50% inhibition of specific binding.)
The inhibition constant (Ki) of the test compound was then calculated according to the Cheng-Prusoff equation: [formula] where [L] is the concentration of radiolabel and Ka is the equilibrium dissociation constant.

Structure (SMILES) | Ki [nM]
C[C@](Cc1c[nH]c2ccccc12)(NC(=O)OC1C2CC3CC(C2)CC1C3)C(=O)N[C@H](CC(=O)NCCCC(=O)O)Cc1ccccc1 (stereo partly drawn) [Compound 11l, Butanoic acid, 4-[[3-[[3-(1H-indol-3-yl)-2-methyl-1-oxo-2-[[(tricyclo[3.3.1.1^3,7]dec-2-yloxy)carbonyl]amino]propyl]amino]-1-oxo-4-phenylbutyl]amino]-, [R-(R*,S*)]] | 10.6 ± 0.12
COC(=O)CCCCCNC(=O)[C@H](Cc1ccccc1)NC(=O)[C@@](C)(Cc1c[nH]c2ccccc12)NC(=O)OC1C2CC3CC(C2)CC1C3 (stereo partly drawn) [Compound 5d, L-Phenylalaninamide, α-methyl-N-[(tricyclo[3.3.1.1^3,7]dec-2-yloxy)carbonyl]-D-tryptophyl-N-(6-methoxy-6-oxohexyl)] | 173
C[C@](Cc1c[nH]c2ccccc12)(NC(=O)OC1C2CC3CC(C2)CC1C3)C(=O)N[C@@H](Cc1ccccc1)C(=O)N[C@@H](CCC(=O)O)C(=O)O (stereo partly drawn) [Compound 6i, L-Glutamic acid, N-[N-[α-methyl-N-[(tricyclo[3.3.1.1^3,7]dec-2-yloxy)carbonyl]-D-tryptophyl]-L-phenylalanyl]] | 1520
COC(=O)CC[C@H](NC(=O)[C@H](Cc1ccccc1)NC(=O)[C@@](C)(Cc1c[nH]c2ccccc12)NC(=O)OC1C2CC3CC(C2)CC1C3)C(=O)OC (stereo partly drawn) [Compound 5f] | 110
C[C@](Cc1c[nH]c2ccccc12)(NC(=O)OC1C2CC3CC(C2)CC1C3)C(=O)N[C@@H](Cc1ccccc1)C(=O)NCC(=O)O (stereo partly drawn) [Compound 6j, Glycine, N-[2-methyl-N-[(tricyclo[3.3.1.1^3,7]dec-2-yloxy)carbonyl]-D-tryptophyl]-L-phenylalanyl-] | 7.41 ± 1.04
C[C@](Cc1c[nH]c2ccccc12)(NC(=O)OC1C2CC3CC(C2)CC1C3)C(=O)N[C@@H](Cc1ccccc1)C(=O)NCCC(=O)O (stereo partly drawn) [Compound 6a, β-Alanine, N-[N-[α-methyl-N-[(tricyclo[3.3.1.1^3,7]-dec-2-yloxy)carbonyl]-D-tryptophyl]-L-phenylalanyl]] | 27.9 ± 4.1
COC(=O)CCNC(=O)C[C@H](Cc1ccccc1)NC(=O)[C@@](C)(Cc1c[nH]c2ccccc12)NC(=O)OC1C2CC3CC(C2)CC1C3 (stereo partly drawn) [Compound 10a, β-Alanine, N-[3-[[3-(1H-indol-3-yl)-2-methyl-1-oxo-2-[[(tricyclo[3.3.1.1^3,7]dec-2-yloxy)carbonyl]amino]propyl]amino]-1-oxo-4-phenylbutyl]-, methyl ester, [R-(R*,S*)]] | 21.2 ± 5.4
CCOC(=O)CCCNC(=O)C[C@H](Cc1ccccc1)NC(=O)[C@@](C)(Cc1c[nH]c2ccccc12)NC(=O)OC1C2CC3CC(C2)CC1C3 (stereo partly drawn) [Compound 10l] | 66.4
C[C@](Cc1c[nH]c2ccccc12)(NC(=O)OC1C2CC3CC(C2)CC1C3)C(=O)N[C@H](CC(=O)NCCC(=O)O)Cc1ccccc1 (stereo partly drawn) [Compound 11a, β-Alanine, N-[3-[[3-(1H-indol-3-yl)-2-methyl-1-oxo-2-[[(tricyclo[3.3.1.1^3,7]dec-2-yloxy)carbonyl]amino]propyl]amino]-1-oxo-4-phenylbutyl]-, [R-(R*,S*)]] | 9.44
CCOC(=O)CNC(=O)C[C@H](Cc1ccccc1)NC(=O)[C@@](C)(Cc1c[nH]c2ccccc12)NC(=O)OC1C2CC3CC(C2)CC1C3 (stereo partly drawn) [Compound 10k, Glycine, N-[3-[[3-(1H-indol-3-yl)-2-methyl-1-oxo-2-[[(tricyclo[3.3.1.1^3,7]dec-2-yloxy)carbonyl]amino]propyl]amino]-1-oxo-4-phenylbutyl]-, ethyl ester, [R-(R*,S*)]-] | 17.9
C[C@](Cc1c[nH]c2ccccc12)(NC(=O)OC1C2CC3CC(C2)CC1C3)C(=O)N[C@@H](Cc1ccccc1)C(=O)N[C@@H](CC(=O)O)C(=O)O (stereo partly drawn) [Compound 6h, L-Aspartic acid, N-[N-[α-methyl-N-[(tricyclo[3.3.1.1^3,7]dec-2-yloxy)carbonyl]-D-tryptophyl]-L-phenylalanyl]] | 1170
C[C@](Cc1c[nH]c2ccccc12)(NC(=O)OC1C2CC3CC(C2)CC1C3)C(=O)N[C@H](CC(=O)NCC(=O)O)Cc1ccccc1 (stereo partly drawn) [Compound 11k] | 4.4 ± 0.6
